# Test results from ChEMBL document CHEMBL4145597, “BMS-986163, a Negative Allosteric Modulator of GluN2B with Potential Utility in Major Depressive Disorder” (ACS Med Chem Lett, 2018).
# Legend:
# Mus musculus = test: Ex vivo receptor occupancy at GluN2B receptor in CD-1 mouse forebrain membranes assessed as reduction in [3H]Ro 25-6981 receptor labeling at 3 mg/kg, iv incubated for 5 mins by topcount micro scintillation counting method; format: functional
# [1] = target: Voltage-gated inwardly rectifying potassium channel KCNH2 (Homo sapiens, UniProt Q12809); test: Inhibition of human ERG expressed in HEK293 cells assessed as reduction in peak tail current after 2 to 5 mins by patch clamp based electrophysiology assay; format: cell-based
# [2] = target: Glutamate receptor ionotropic, NMDA 2B (Rattus norvegicus, UniProt Q00960); test: Displacement of [3H]Ro 25-6981 from GluN2B receptor in Sprague-Dawley rat forebrain membranes incubated for 1 hr by topcount micro scintillation counting method; set-up: species or system Membrane
# [3] = Plasma concentration in CD-1 mouse at 0.1 to 1 mg/kg, iv; format: ADME, organism-based; conditions: in vivo
# Sequence of Voltage-gated inwardly rectifying potassium channel KCNH2 (Q12809 whole entry): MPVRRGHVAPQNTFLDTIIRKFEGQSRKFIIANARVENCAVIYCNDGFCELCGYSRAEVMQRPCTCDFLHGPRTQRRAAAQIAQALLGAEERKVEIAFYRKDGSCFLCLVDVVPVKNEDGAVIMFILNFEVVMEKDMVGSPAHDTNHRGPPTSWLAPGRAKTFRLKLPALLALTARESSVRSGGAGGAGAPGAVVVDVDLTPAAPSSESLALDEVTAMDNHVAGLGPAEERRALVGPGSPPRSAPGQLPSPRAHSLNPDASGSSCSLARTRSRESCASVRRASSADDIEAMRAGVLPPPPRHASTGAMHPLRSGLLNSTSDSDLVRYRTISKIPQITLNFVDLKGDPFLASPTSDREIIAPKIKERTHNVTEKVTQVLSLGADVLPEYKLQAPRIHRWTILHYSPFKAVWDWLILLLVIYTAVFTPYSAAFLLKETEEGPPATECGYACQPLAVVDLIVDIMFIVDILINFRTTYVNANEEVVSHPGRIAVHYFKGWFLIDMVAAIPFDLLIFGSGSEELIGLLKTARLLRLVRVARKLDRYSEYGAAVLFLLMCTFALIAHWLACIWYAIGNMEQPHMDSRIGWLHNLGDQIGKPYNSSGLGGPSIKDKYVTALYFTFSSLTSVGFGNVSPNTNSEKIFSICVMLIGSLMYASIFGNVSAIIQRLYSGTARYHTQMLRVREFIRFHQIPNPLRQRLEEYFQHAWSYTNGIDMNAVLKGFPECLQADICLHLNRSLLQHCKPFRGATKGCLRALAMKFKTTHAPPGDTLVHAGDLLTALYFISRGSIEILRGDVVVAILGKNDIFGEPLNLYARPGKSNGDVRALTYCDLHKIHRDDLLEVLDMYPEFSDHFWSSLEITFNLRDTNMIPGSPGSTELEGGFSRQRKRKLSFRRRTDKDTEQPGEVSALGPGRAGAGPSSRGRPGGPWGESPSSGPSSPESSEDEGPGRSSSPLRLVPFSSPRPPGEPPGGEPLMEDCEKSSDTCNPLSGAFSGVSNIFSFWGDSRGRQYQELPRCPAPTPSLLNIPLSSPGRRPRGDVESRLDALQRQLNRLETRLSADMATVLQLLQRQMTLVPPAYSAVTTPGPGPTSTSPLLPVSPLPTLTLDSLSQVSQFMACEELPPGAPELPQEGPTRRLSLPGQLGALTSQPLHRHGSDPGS
# Sequence of Glutamate receptor ionotropic, NMDA 2B (Q00960 whole entry): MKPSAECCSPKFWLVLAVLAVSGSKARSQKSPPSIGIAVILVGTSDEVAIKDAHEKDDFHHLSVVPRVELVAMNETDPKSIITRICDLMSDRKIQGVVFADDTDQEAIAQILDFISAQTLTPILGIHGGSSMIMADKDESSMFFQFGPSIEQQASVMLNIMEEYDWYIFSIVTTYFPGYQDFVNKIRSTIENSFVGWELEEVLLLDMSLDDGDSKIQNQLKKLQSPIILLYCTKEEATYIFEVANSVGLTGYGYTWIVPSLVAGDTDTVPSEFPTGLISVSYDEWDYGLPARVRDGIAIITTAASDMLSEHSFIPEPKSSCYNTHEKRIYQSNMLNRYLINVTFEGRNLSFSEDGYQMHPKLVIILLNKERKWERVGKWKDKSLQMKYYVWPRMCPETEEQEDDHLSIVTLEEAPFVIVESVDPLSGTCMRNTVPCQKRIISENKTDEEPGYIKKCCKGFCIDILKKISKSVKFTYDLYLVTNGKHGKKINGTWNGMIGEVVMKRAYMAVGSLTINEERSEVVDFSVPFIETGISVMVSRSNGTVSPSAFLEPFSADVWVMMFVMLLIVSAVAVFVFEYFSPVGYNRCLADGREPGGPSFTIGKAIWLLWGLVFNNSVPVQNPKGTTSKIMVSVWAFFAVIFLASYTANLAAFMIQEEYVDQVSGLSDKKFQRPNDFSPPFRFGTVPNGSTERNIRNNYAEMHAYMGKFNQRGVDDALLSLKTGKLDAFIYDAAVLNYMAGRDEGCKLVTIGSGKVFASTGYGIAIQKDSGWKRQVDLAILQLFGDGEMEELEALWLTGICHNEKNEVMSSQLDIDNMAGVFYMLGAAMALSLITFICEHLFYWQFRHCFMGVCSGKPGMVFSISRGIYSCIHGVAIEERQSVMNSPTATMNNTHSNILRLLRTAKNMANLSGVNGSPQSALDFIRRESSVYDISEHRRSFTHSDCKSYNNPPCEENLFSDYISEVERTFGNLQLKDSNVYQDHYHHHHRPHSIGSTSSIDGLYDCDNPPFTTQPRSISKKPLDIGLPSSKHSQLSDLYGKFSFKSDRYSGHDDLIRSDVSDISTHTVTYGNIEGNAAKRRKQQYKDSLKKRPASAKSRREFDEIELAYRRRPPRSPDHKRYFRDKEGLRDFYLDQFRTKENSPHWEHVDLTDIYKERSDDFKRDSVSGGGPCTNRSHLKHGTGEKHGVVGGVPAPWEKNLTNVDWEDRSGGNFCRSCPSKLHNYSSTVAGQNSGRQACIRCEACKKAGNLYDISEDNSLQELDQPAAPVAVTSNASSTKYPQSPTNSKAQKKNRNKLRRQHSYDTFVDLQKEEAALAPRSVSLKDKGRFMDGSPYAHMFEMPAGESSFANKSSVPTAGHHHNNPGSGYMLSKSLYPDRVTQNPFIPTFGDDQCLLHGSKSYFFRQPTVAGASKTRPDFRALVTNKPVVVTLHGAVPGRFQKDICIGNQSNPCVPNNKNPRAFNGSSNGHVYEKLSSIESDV
smiles,measurement,setting,value
O=C1[C@H](N2CC[C@@H](c3ccc(O)cc3)[C@H](F)C2)CCN1Cc1ccc(F)cc1,Occ,Mus musculus,81%
same,IC50,[1],> 5000 nM
same,Ki,[2],11 nM
same,concentration,[3],1200 nM
